# Assay results as given in patent publication US11969425B2, “Inhibitor of indoleamine-2,3-dioxygenase (IDO)” (InventisBio LLC, priority 2016, dated 2024).
# System: kynurenine production in HeLa cells
# Assay: Inhibition of kynurenine production in HeLa cells
# Assay type: cell-based, human
# Conditions: HeLa cells, human IFN-γ 50 ng/mL, 48 h, kynurenine read at 480 nm; read-out: IC50
# Description: The effect of compounds described herein on the inhibition of kynurenine production in HeLa cells (derived from human cervical cancer) was determined. HeLa cells were seeded into a 96-well culture plate at a density of 5×10^3 per well in RPMI1640/phenol red free media (from GIBCO) with 2 mM L-glutamine and 10% fetal bovine serum (FBS, from GIBCO) and grown overnight in a 37° C. incubator with 5% CO2. Twenty-four hours later, human IFN-γ (from GIBCO) (final concentration 50 ng/mL) and test compound solutions (serially diluted to different wells) were added to each well with a final volume of 200 uL per well. Forty-eight hours after incubation with compounds, 140 uL supernatant was taken from each well and was transferred to a new 96-well plate. Ten microliters of 6.1 N trichloroacetic acid were added into each well, mixed and incubated at 50° C. for 30 minutes. The reaction mixture was then centrifuged for 10 minutes at 2500 rpm and 100 uL of the supernatant per well was transferred to another 96 well plate and mixed with 100 uL of 2% (w/v) p-dimethylaminobenzaldehyde in acetic acid. The yellow color derived from kynurenine was measured at 480 nm using a SPECTRAmax i3 reader. Each compound concentration was done in triplicates and compound IC50 value was calculated using nonlinear regression using Graphpad Prism 5.0.
# The inhibitory activity of representative compounds described herein, compared with another IDO inhibitor, such as INCB-24360, Controls 1 and 2 are shown in Table 2.
row,IC50 [nM],SMILES
1,12.7,"CCC(C(=O)O)c1ccc(N(CC(C)C)CC(C)C)c(NC(=O)Nc2cc(C)no2)c1 (single isomer, unassigned) [Compound 59A]"
2,0.1,"CCC(C(=O)O)c1ccc(N(CC(C)C)CC(C)C)c(NC(=O)Nc2cc(C)no2)c1 (single isomer, unassigned) [Compound 59B]"
3,33,"CCC(C(=O)O)c1ccc(N(CC(C)C)CC(C)C)c(Nc2ccc(S(C)(=O)=O)cc2)c1 (single isomer, unassigned) [Compound 60A]"
4,2.8,"CCC(C(=O)O)c1ccc(N(CC(C)C)CC(C)C)c(Nc2ccc(S(C)(=O)=O)cc2)c1 (single isomer, unassigned) [Compound 60B]"
5,1.4,"CCC(C(=O)O)c1ccc(N(CC(C)C)C2CCCCC2)c(NC(=O)Nc2ccc(F)cc2F)c1 (single isomer, unassigned) [Compound 62A]"
6,0.2,"CCC(C(=O)O)c1ccc(N(CC(C)C)C2CCCCC2)c(NC(=O)Nc2ccc(F)cc2F)c1 (single isomer, unassigned) [Compound 62B]"
7,4.2,"CCC(C(=O)O)c1ccc(N(CC(C)C)C2CCCCC2)c(NC(=O)Nc2cncnc2)c1 (single isomer, unassigned) [Compound 64A]"
8,0.2,"CCC(C(=O)O)c1ccc(N(CC(C)C)C2CCCCC2)c(NC(=O)Nc2cncnc2)c1 (single isomer, unassigned) [Compound 64B]"
9,0.8,"CCC(C(=O)O)c1ccc(N(CC(C)C)C2CCOCC2)c(NC(=O)Nc2ccc(F)cc2F)c1 (single isomer, unassigned) [Compound 65A]"
10,12,"CCC(C(=O)O)c1ccc(N(CC(C)C)C2CCOCC2)c(NC(=O)Nc2ccc(F)cc2F)c1 (single isomer, unassigned) [Compound 65B]"
11,0.3,"CCC(C(=O)O)c1ccc(N(CC(C)C)C2CCOCC2)c(Nc2ccc3c(c2)OC(F)(F)O3)c1 (single isomer, unassigned) [Compound 71A]"
12,0.9,"CCC(C(=O)O)c1ccc(N(CC(C)C)C2CCOCC2)c(Nc2ccc3c(c2)OC(F)(F)O3)c1 (single isomer, unassigned) [Compound 71B]"
13,61.5,CC(C)CN(CC(C)(C)O)c1ccc(C2(C(=O)O)CCC2)cc1NC(=O)Nc1ccc(F)cc1F [Compound 23]
14,0.7,CCC(C(=O)O)c1ccc(N(CC(C)C)C2CCOCC2)c(Nc2ccc(Cl)cc2)c1 (stereo not drawn) [Compound 68B]

# Same assay, conditions: Homo sapiens, HeLa, 48 h
row,SMILES,IC50 [nM]
1,CC(C)CN(c1ccc(C2(C(=O)O)CCC2)cc1NC(=O)Nc1ccc(F)cc1F)C1CCN(C)CC1 [Compound 28],> 316

# Same assay, conditions: Homo sapiens, HeLa, 48 h, HeLa cells, human IFN-γ 50 ng/mL, kynurenine read at 480 nm, read-out: IC50
row,IC50 [nM],SMILES
1,130,"CC(C)CN(CC(C)C)c1ccc(CC(=O)O)cc1NC(=O)Nc1ccc(F)cc1F [Compound 1, 2-[4-[bis(2-methylpropyl)amino]-3-[[(2,4-difluorophenyl)carbamoyl]amino]phenyl]acetic acid]"
2,9.1,CC(C)CN(CC(C)C)c1ccc(C(C)C(=O)O)cc1NC(=O)Nc1ccc(F)cc1F (stereo not drawn) [Compound 2]
3,14.9,CC(C)CN(CC(C)C)c1ccc(C(C)(C)C(=O)O)cc1NC(=O)Nc1ccc(F)cc1F [Compound 4]
4,8.5,CC(C)CN(CC(C)C)c1c(F)cc(Cc2nnn[nH]2)cc1NC(=O)Nc1ccc(F)cc1F [Compound 6]
5,6.3,"CC(C)CN(CC(C)C)c1ccc(C2(C(=O)O)CC2)cc1NC(=O)Nc1ccc(F)cc1F [Compound 7, 1-[4-[bis(2-methylpropyl)amino]-3-[[(2,4-difluorophenyl)carbamoyl]amino]phenyl]cyclopropane-1-carboxylic acid]"
6,47,"CC(C)CN(CC(C)C)c1ccc(C2(C(=O)O)CCOCC2)cc1NC(=O)Nc1ccc(F)cc1F [Compound 8, 4-[4-[bis(2-methylpropyl)amino]-3-[[(2,4-difluorophenyl)carbamoyl]amino]phenyl]oxane-4-carboxylic acid]"
7,0.9,"CC(C)CN(CC(C)C)c1ccc(C2(c3nnn[nH]3)CCCC2)cc1NC(=O)Nc1ccc(F)cc1F [Compound 10, 3-[2-[bis(2-methylpropyl)amino]-5-[1-(1H-1,2,3,4-tetrazol-5-yl)cyclopentyl]phenyl]-1-(2,4-difluorophenyl)urea]"
8,0.9,CC(C)CN(c1ccc(C2(C(=O)O)CCCC2)cc1NC(=O)Nc1ccc(F)cc1F)C1CCCCC1 [Compound 11]
9,0.5,CC(C)CN(c1ccc(C2(C(=O)O)CCCC2)cc1NC(=O)Nc1ccc(F)cc1F)C1CCC(F)(F)CC1 [Compound 12]
10,0.6,O=C(Nc1ccc(F)cc1F)Nc1cc(C2(C(=O)O)CCCC2)ccc1N(CCC(F)(F)F)Cc1ccc(OC(F)(F)F)cc1 [Compound 13]
11,0.5,Cc1ccc(NC(=O)Nc2cc(C3(C(=O)O)CCCC3)ccc2N(CCC(F)(F)F)Cc2ccc(OC(F)(F)F)cc2)cc1 [Compound 14]
12,1.4,Cc1cc(NC(=O)Nc2cc(C3(C(=O)O)CCCC3)ccc2N(CC(C)C)C2CCOCC2)on1 [Compound 15]
13,0.8,Cc1cc(NC(=O)Nc2cc(C3(C(=O)O)CCC3)ccc2N(CC(C)C)CC(C)C)on1 [Compound 17]
14,6.6,CC(C)CN(CC(C)C)c1ccc(C2(C(=O)O)CCC2)cc1NC(=O)Nc1cncnc1 [Compound 18]
15,1,CC(C)CN(CC(C)C)c1ccc(C2(c3nnn[nH]3)CCC2)cc1NC(=O)Nc1ccc(F)cc1F [Compound 19]
16,0.5,CCN(c1ccc(C2(C(=O)O)CCC2)cc1NC(=O)Nc1ccc(F)cc1F)C1CCCCC1 [Compound 20]
17,0.6,CC(C)CN(c1ccc(C2(C(=O)O)CCC2)cc1NC(=O)Nc1ccc(F)cc1F)C1CCCCC1 [Compound 21]
18,2.1,COCCN(c1ccc(C2(C(=O)O)CCC2)cc1NC(=O)Nc1ccc(F)cc1F)C1CCCCC1 [Compound 22]
19,2.2,CCN(c1ccc(C2(C(=O)O)CCC2)cc1NC(=O)Nc1ccc(F)cc1F)C1CCOCC1 [Compound 24]
20,5.7,Cc1cc(NC(=O)Nc2cc(C3(C(=O)O)CCC3)ccc2N(CC(C)C)C2CCOCC2)on1 [Compound 27]
21,4,CC(C)CN(CC(C)C)c1ccc(C2(C(=O)O)CC(F)(F)C2)cc1NC(=O)Nc1ccc(F)cc1F [Compound 29]
22,1,CC(C)CN(CC(C)C)c1ccc(C2(c3nnn[nH]3)CC(F)(F)C2)cc1NC(=O)Nc1ccc(F)cc1F [Compound 30]
23,11.8,CC(C)CN(CC(C)C)c1ccc(OCC(=O)O)cc1NC(=O)Nc1ccc(F)cc1F [Compound 31]

row,IC50 [nM],SMILES
1,0.8,CC(C)CN(CC(C)C)c1ccc(OC(C)(C)C(=O)O)cc1NC(=O)Nc1ccc(F)cc1F [Compound 32]
2,48,CC(C)CN(CC(C)C)c1ccc(OC(C)(C)C(=O)O)cc1NC(=O)Nc1cncnc1 [Compound 33]
3,7.7,Cc1cc(NC(=O)Nc2cc(OC(C)(C)C(=O)O)ccc2N(CC(C)C)CC(C)C)on1 [Compound 34]
4,1.9,CC(C)CN(c1ccc(OC(C)(C)C(=O)O)cc1NC(=O)Nc1ccc(F)cc1F)C1CCCCC1 [Compound 35]
5,2.8,CC(C)CN(CC(C)C)c1ccc(SCC(=O)O)cc1NC(=O)Nc1ccc(F)cc1F [Compound 36]
6,19.9,CC(C)CN(CC(C)C)c1ccc(SC(C)(C)C(=O)O)cc1NC(=O)Nc1ccc(F)cc1F [Compound 37]
7,6.4,CC(C)CN(c1ccc(SC(C)(C)C(=O)O)cc1NC(=O)Nc1ccc(F)cc1F)C1CCCCC1 [Compound 41]
8,134,CC(C)CN(c1ccc(SC(C)(C)C(=O)O)cc1NC(=O)Nc1ccc(F)cc1F)C1CCOCC1 [Compound 43]
9,78,COCCN(c1ccc(SC(C)(C)C(=O)O)cc1NC(=O)Nc1ccc(F)cc1F)C1CCCCC1 [Compound 45]
10,5.6,CC(C)CN(CC(C)C)c1ccc(C2(C(=O)O)CCCC2)cc1Nc1nc2ccccc2[nH]1 [Compound 47]
11,> 316,CC(C)CN(CC(C)C)c1ccc(C2(C(=O)O)CCCC2)cc1Nc1ncccn1 [Compound 49]
12,> 316,CC(C)CN(c1ccc(C2(C(=O)O)CCC2)cc1NC(=O)C(C)C)C1CCOCC1 [Compound 50]
13,2.3,CC(C)CN(CC(C)C)c1ccc(C2(C(=O)O)CCCC2)cc1Nc1ccc(Cl)cc1 [Compound 51]
14,0.3,CC(C)CN(c1ccc(C2(C(=O)O)CCC2)cc1Nc1ccc(Cl)cc1)C1CCCCC1 [Compound 52]
15,1,CCOc1ccc(Nc2cc(C3(C(=O)O)CCC3)ccc2N(CC(C)C)C2CCCCC2)cc1 [Compound 53]
16,0.6,CC(C)CN(c1ccc(C2(C(=O)O)CCC2)cc1Nc1cncnc1)C1CCCCC1 [Compound 54]
17,0.3,CCOc1ncc(Nc2cc(C3(C(=O)O)CCC3)ccc2N(CC(C)C)C2CCCCC2)cn1 [Compound 55]
18,0.2,CC(C)CN(c1ccc(C2(C(=O)O)CCC2)cc1Nc1ccc(C#N)cc1)C1CCCCC1 [Compound 56]
19,0.2,CC(C)CN(c1ccc(C2(C(=O)O)CCC2)cc1Nc1ccc(Cl)cc1)C1CCOCC1 [Compound 57]
20,0.3,CCC(C(=O)O)c1ccc(N(CC(C)C)CC(C)C)c(Nc2ccc(C#N)cc2)c1 (stereo not drawn) [Compound 61A]
21,2.5,CCC(C(=O)O)c1ccc(N(CC(C)C)C2CCCCC2)c(NC(=O)Nc2cc(C)no2)c1 (stereo not drawn) [Compound 63A]
22,0.4,CCC(C(=O)O)c1ccc(N(CC(C)C)C2CCOCC2)c(Nc2ccc(Cl)cc2)c1 (stereo not drawn) [Compound 68A]
